Data as given in patent US20230381237A1, “CHIMERIC ANTIGEN RECEPTOR (CAR) T-CELL ADJUVANT THERAPIES” (priority 2022, published 2023).
“Also recorded” adds a separate entry of the source.

Legend:
TNF-α = settings: patients with diabetes; doses within dose equivalencies of CTO1681 MAD study; cited from earlier work
influenza (H1N1) = experiment: In vivo lethal influenza H1N1 studies, cytokine levels; parameters: species or system mice
[1] = Single dose PK study in BALB/C mice; format: in vivo, murine (BALB/C)
[2] = Example 4: treatment with predetermined delay period; format: in vivo, human; settings: mantle cell lymphoma; start three days after CAR T-cells, eleven days
Description: Both groups will receive infusion of CAR T-cells. […] Cytokines will be monitored daily for both groups.

Food effect = format: in vivo; settings: oral tablets
[3] = Phase 1 multiple ascending, repeat-dosing study in healthy volunteers
[4] = Example 3: human treatment with no delay period; format: in vivo; settings: B-cell lymphoma, daily for 7-15 days
Description: Both groups will receive infusion of CAR T-cells. […] Clinical signs of CRS and cytokines will be monitored daily for both groups.

[5] = system: PBMCs activated through TLR-3; experiment: TNFα production in Poly r(I:C)-activated PBMCs (sandwich ELISA); settings: 0.3 nM to 750 nM
[6] = system: circulating cytokines (TNFα); experiment: Serum cytokine measurements after CTO1681 treatment in African Green Monkeys; format: in vivo; settings: highest dose of CTO1681 compared to the other two cohorts
Description: Longitudinal serum samples were taken through the course of the observation period. At the end of all three cohorts serum samples were utilized to determine circulating concentrations of 12 different cytokines. Representative data is pictured below for TNFα, a key central cytokine in CRS (FIG. 6). […] Overall there appears to be a dose-dependent trend to cytokine reduction.

CD19+Raji tumor cells = experiment: CD19 CAR T-cell killing of Raji target cells (flow cytometry, 7-AAD); format: cell-based, human; settings: in vitro; Effector:Target 10:1, 5:1, 1:1; all concentrations; monosodium salt
[7] = Pharmacokinetics in African Green Monkeys, TID oral gavage; format: in vivo
Description: (§1) Individual Animal Metrics—Nine African green monkeys (approximately 16 years old, wild-caught) were used in this PK study. Per requirements of the CDC, all animals were quarantined at a CDC facility for 30 days followed by a 90-day quarantine/acclimation period at TNPRC prior to study initiation. Animals were dosed three times daily (TID) by oral gavage in three separate rounds of the study (ascending dose concentrations). Individual animal weights were tracked throughout the entirety of the study. On average, weights decreased 5.5% across all cohorts, with no individual animal losing more than 8.7% of its initial body weight over the course of the study. No difference in mean weight change is observed between male and female monkeys. […] Ultimately, the animals handled the schedule well, all remaining in good health with a weight loss of no more than what was expected by the veterinary staff with the schedule intensity.
Individual animal profiles were evaluated following each dose on a single day of dosing. Single day TID doses were administered using the same animals following a minimum of 7 days wash out between increasing dose level rounds, where Round 1 was TID 0.008 mg/kg/day (0.00267 mg/kg/dose), Round 2 was TID 0.04 mg/kg/day (0.0133 mg/kg/dose), and Round 3 was TID 0.2 mg/kg/day (0.0667 mg/kg/dose). Wash out (negative) plasma levels of CTO1681 between dose rounds were confirmed. […] Samples were collected at the following target timepoints relative to the first TID dose of the day: 0.25, 0.5, 1, 2, 4, and 8 hours (prior to second daily dose), 8.25, 8.5, 9, 10, 12, and 16 hours (prior to third daily dose), 16.25, 16.5, 17, 18, 20, 24, 28 and 40 hours after TID test item administration by oral gavage dosing, with the three daily doses administered at 0, 8 and 16 h in 9 animals, staggered for n=3 collection after administration of each daily dose. […]

[8] = system: CD19 CAR T-cells co-cultured with CD19+Raji lymphoma target cells; experiment: CD19 CAR T-cell / Raji co-culture, pro-inflammatory cytokine levels; format: cell-based, human
[9] = Example 2: mouse model of CAR T-cell therapy induced CRS; settings: IP, BID for 7 days
[10] = BID dose PK study in NSG mice (CAS-2201); format: in vivo, murine (NSG)
Raji-luc tumor cells = experiment: CAR T-cell efficacy in NSG tumor bearing mice; format: in vivo
Description: Human T-cells expressing CD19-CD28-CD3Z CAR construct was used in this experiment.
6-7 week old NSG™ (NOD SCID gamma) mice were engrafted with 1×10^6 luciferase (luc) expressing Raji tumor cells (herein referred to as “Raji-luc” tumor cells) each on Day 1 to allow for tumor growth over a 7-day period prior to the commencement of the treatment. CAR T-cell infusion was performed intravenously via lateral tail vein on (5×10^6 CD19 CAR T-cells generated from healthy donors). NSG mice are severely immunodeficient, which facilitates ready tumor engraftment and subsequent clearance due to CAR T-cells can be measured.
Tumor growth after engraftment and subsequent clearance were monitored once weekly (starting on Day 7) using IVIS imaging to detect luciferase signal in living mice. […] CTO1681 doses were selected based on the pharmacokinetic profile of the drug in mice. Control groups included mice receiving Raji-luc tumor cells without CAR T-cell treatment, mice receiving Raji-luc tumor cells and a CAR T-cell infusion, and mice receiving Raji-luc tumor cells with vehicle treatments. Mice were monitored for body temperature and health evaluations (weight, movement, posture, fur condition, etc.) throughout the entire study.

[11] = Example 5: treatment with monitored delay period; format: in vivo, human; settings: acute myeloid leukemia; start upon cytokine increase, ten days
Description: Both groups will receive infusion of CAR T-cells. Cytokines will be monitored daily for both groups. […] Treatment with CTO1681 will continue daily for ten days.

[12] = Body weight and tolerability in African green monkey PK study; format: in vivo, African green monkeys
Description: as §1

influenza (H5N1) = settings: in vivo; cited from earlier work
[13] = CytoAgents in vivo influenza (H1N1) studies
[14] = 10:1 ratio of Effectors to Target cells, CTO1681 0.36-225 nM, 24 hours

CC#CCC(C)C(O)C=CC1C(O)CC2Oc3c(CCCC(=O)[O-])cccc3C21.[Na+] (centres unmarked) [beraprost sodium, 2,3,3a,8b-tetrahydro-2-hydroxyl-1-(3-hydroxyl-4-methyl-1-octen-6-ynyl)-1H-cyclopenta[b]benzofuran-5-butanoic acid, sodium salt]
TNF-α (TNF-α): significant reductions

CC#CC[C@H](C)[C@H](O)/C=C/[C@@H]1[C@H]2c3cccc(CCCC(=O)[O-])c3O[C@H]2C[C@H]1O.[Na+] [CTO1681, (+)-[1R, 2R, 3aS, 8bS]-2,3,3a,8b-tetrahydro-2-hydroxy-1-[(E)-(3S,4S)-3-hydroxy-4-methyl-1-octen-6-ynyl)-1Hcyclopenta[b]benzofuran-5-butanoic acid, monosodium salt]
IL-2 level (influenza (H1N1); [13]): reduced
IL-6 level (influenza (H1N1); [13]): reduced
IL-10 level (influenza (H1N1); [13]): reduced
IFN-α concentrations (influenza (H1N1); lethal H1N1 influenza infections): no significant repression
T1/2 [1]: 1 to 2 h
CRS symptoms vs control group [2]: reduced CRS symptoms
Undesired cytokine production vs control group [2]: lower undesired cytokine production
Food effect (Food effect): positive food effect
Cytokine levels (panel of 27 cytokines) [3]: no clinically significant decreases
SAEs, TEAEs of special interest, TEAEs leading to study discontinuation or dose reduction ([3]; 15 to 60 μg/day, 7 days): No SAEs
Treatment-emergent AEs, mild ([3]; 15 to 60 μg/day, 7 days): 62 AEs
Treatment-emergent AEs, moderate ([3]; 15 to 60 μg/day, 7 days): 4 AEs
CRS symptoms vs control group [4]: reduced CRS symptoms
Undesired cytokine production vs control group [4]: lower undesired cytokine production
EC50 ([5]; Replicate 1): 5.7 nM
EC50 ([5]; Replicate 2): 4.14 nM
EC50 ([5]; Replicate 3): 1.95 nM
Cytokine levels in serum (TNFα representative) [6]: remarkable and consistent reduction
Effect on tumor/target cell killing of CD19-directed CAR T-cells (CD19+Raji tumor cells): absence of an effect; also recorded: did not impact or interfere
Tmax ([7]; round 1, 0.008 mg/kg/day TID oral): 1.5 h
Tmax ([7]; round 2, 0.04 mg/kg/day TID oral): 2.0 h
Tmax ([7]; round 3, 0.2 mg/kg/day TID oral): 2.1 h
Maximum reduction of IFN-γ [8, 14]: ~26%
Maximum reduction of TL-6 [8, 14]: ~23%
Maximum reduction of TNF-α [8, 14]: approximately 50%
Levels of IL-6 ([8]; CAR T-cells and Raji cells at a 10:1 ratio (FIG. 1A)): dose-dependently lowers
Levels of TNF-α ([8]; CAR T-cells and Raji cells at a 10:1 ratio (FIG. 1B)): dose-dependently lowers
Levels of IFN-γ ([8]; CAR T-cells and Raji cells at a 10:1 ratio (FIG. 1C)): dose-dependently lowers
Comparison with dexamethasone [9]: superior to dexamethasone
Survival benefits over dexamethasone [9]: greater survival benefits
Elimination half-life ([10]; calculated using first daily dose, range of 6-12 h (Rsq=0.40)): 1.8 h
T1/2 of BID exposure ([10]; two times a day (BID) dose): approximately 5 hours
Effect on CD19 CAR T-cell activity (reduction of lymphoma tumor burden) (Raji-luc tumor cells; 0.3, 0.2 or 0.15 mg/kg/d BID for 14 days, Day 15, monosodium salt): does not interfere; also recorded: did not affect
Clinical morbidities, including weight loss or limb movement (Raji-luc tumor cells; NSG mice, with CAR T-cell therapy): did not cause any increase
CRS symptoms vs control group [11]: reduced CRS symptoms
Undesired cytokine production vs control group [11]: lower undesired cytokine production
Tolerability / toxicities or negative health effects ([12]; TID oral administration, 0.008-0.2 mg/kg/day, monosodium salt): overall tolerable; also recorded: no toxicities or negative health effects
Average weight decrease across all cohorts ([12]; entire study): 5.5%
Largest individual loss of initial body weight ([12]; entire study): ≤ 8.7%
IL-2 level (influenza (H5N1)): reduced
IL-6 level (influenza (H5N1)): reduced
IL-8 level (influenza (H5N1)): reduced
IL-10 level (influenza (H5N1)): reduced

CC#CCC(C)[C@H](O)/C=C/[C@@H]1[C@H]2c3cccc(CCCC(=O)O)c3O[C@H]2C[C@H]1O (some centres unmarked) [Beraprost, reference compound]
EC50 ([5]; PBMC, Replicate 1): 17.1 nM
EC50 ([5]; PBMC, Replicate 2): 8.64 nM
EC50 ([5]; PBMC, Replicate 3): 17.1 nM
